Measurements as given in the NIST ThermoML archive (doi:10.1016/j.jct.2007.03.012).

Assay: xn = mol fraction of the nth substance listed
Conditions: Liquid, Bellows volumetry

CC(C)C [2-methylpropane] + CCC
mass density [kg/m3]
Conditions	360 K	380 K	400 K	420 K	440 K
5000 kPa, x2 = 0.2765	–	–	353.34	–	–
5000 kPa, x2 = 0.5052	–	390.11	–	–	–
10000 kPa, x2 = 0.2765	–	–	418.11	–	–
10000 kPa, x2 = 0.5052	–	433.73	396.98	353.95	–
10000 kPa, x2 = 0.7468	–	–	370.08	–	–
20000 kPa, x2 = 0.2765	–	–	464.84	–	418.57
20000 kPa, x2 = 0.5052	–	473.66	450.18	426.22	401.72
20000 kPa, x2 = 0.7468	481.36	–	432.58	–	381.56
30000 kPa, x2 = 0.2765	528.67	–	491.48	–	455.11
30000 kPa, x2 = 0.5052	517.29	498.04	478.86	459.76	441.26
30000 kPa, x2 = 0.7468	503.41	–	463.78	–	424.79
40000 kPa, x2 = 0.2765	543.99	–	510.96	–	479.61
40000 kPa, x2 = 0.5052	533.27	516.11	499.19	482.81	467.04
40000 kPa, x2 = 0.7468	520.23	–	485.32	–	452.26
50000 kPa, x2 = 0.2765	556.8	–	526.54	–	498.3
50000 kPa, x2 = 0.5052	546.45	530.72	515.41	500.59	486.62
50000 kPa, x2 = 0.7468	534.15	–	502.4	–	472.75
60000 kPa, x2 = 0.2765	567.78	–	539.61	–	513.76
60000 kPa, x2 = 0.5052	557.79	543.03	528.8	515.22	502.39
60000 kPa, x2 = 0.7468	545.73	–	516.38	–	489.17
70000 kPa, x2 = 0.2765	577.53	–	550.88	–	526.7
70000 kPa, x2 = 0.5052	567.64	553.8	540.38	527.71	515.83
70000 kPa, x2 = 0.7468	555.96	–	528.32	–	503.08
80000 kPa, x2 = 0.2765	586.26	–	560.85	–	538.18
80000 kPa, x2 = 0.5052	576.76	563.25	550.76	538.65	527.49
80000 kPa, x2 = 0.7468	565.01	–	538.83	–	515.14
90000 kPa, x2 = 0.2765	594.28	–	570.04	–	548.29
90000 kPa, x2 = 0.5052	584.67	572.07	559.81	548.42	537.76
90000 kPa, x2 = 0.7468	573.12	–	548.28	–	525.87
100000 kPa, x2 = 0.2765	601.6	–	578.09	–	557.44
100000 kPa, x2 = 0.5052	592.18	579.89	568.28	557.24	547.21
100000 kPa, x2 = 0.7468	580.81	–	557.19	–	535.38
120000 kPa, x2 = 0.2765	614.72	–	592.86	–	573.52
120000 kPa, x2 = 0.5052	605.4	593.88	583.05	572.89	563.63
120000 kPa, x2 = 0.7468	594.3	–	571.88	–	552.06
140000 kPa, x2 = 0.2765	626.08	–	605.66	–	587.48
140000 kPa, x2 = 0.5052	617.13	606.29	595.97	586.39	577.64
140000 kPa, x2 = 0.7468	606.32	–	584.98	–	566.38
160000 kPa, x2 = 0.2765	636.59	–	616.77	–	599.81
160000 kPa, x2 = 0.5052	627.68	617.17	607.43	598.41	590.03
160000 kPa, x2 = 0.7468	616.85	–	596.72	–	579.07
180000 kPa, x2 = 0.2765	645.76	–	626.93	–	610.74
180000 kPa, x2 = 0.5052	637.18	627.17	617.7	609.2	601.17
180000 kPa, x2 = 0.7468	626.62	–	606.99	–	590.35
200000 kPa, x2 = 0.2765	654.56	–	636.12	–	620.79
200000 kPa, x2 = 0.5052	645.89	636.19	627.01	619.16	611.27
200000 kPa, x2 = 0.7468	635.27	–	616.65	–	600.48
